ChEMBL document CHEMBL3886941 (2016)
pIC50: −log10 of the molar value.

Target: Transient receptor potential M8 protein (Canis lupus familiaris, UniProt Q1A7N1)
Assay: Functional Assay: The functional activity of compounds of the formula (I) was determined by measuring changes in intracellular calcium concentration using a Ca2+-sensitive fluorescent dye. The changes in fluorescent signal were monitored by a fluorescence plate reader, either a FLIPR (Molecular Devices) or FDSS (Hamamatsu). Increases in intracellular Ca2+ concentration were readily detected upon activation with icilin.At 24 hrs prior to assay, HEK293 cells stably expressing canine TRPM8 were seeded in culture medium in black wall, clear-base poly-D-lysine coated 384-well plates (BD Biosciences, NJ, USA) and grown overnight in 5% CO2 at 37° C. On assay day, growth media was removed and cells were loaded with Calcium 3 Dye (Molecular Devices) for 35 min at 37° C., under 5% CO2 and then for 25 min at room temperature and atmosphere. Subsequently, cells were tested for agonist-induced increases in intracellular Ca2+ levels using FLIPR or FDSS. Cells were challenged with a compound of the Formula (I) (at varying concentrations) and intracellular Ca2+ was measured for 5 min prior to the addition of icilin to all wells to achieve a final concentration that produces approximately an 80% maximal response. EC50 or IC50 values for compounds of the present invention were determined from eight-point dose-response studies.
Type: cell-based

Transient receptor potential M8 protein, sequence (Q1A7N1 whole entry): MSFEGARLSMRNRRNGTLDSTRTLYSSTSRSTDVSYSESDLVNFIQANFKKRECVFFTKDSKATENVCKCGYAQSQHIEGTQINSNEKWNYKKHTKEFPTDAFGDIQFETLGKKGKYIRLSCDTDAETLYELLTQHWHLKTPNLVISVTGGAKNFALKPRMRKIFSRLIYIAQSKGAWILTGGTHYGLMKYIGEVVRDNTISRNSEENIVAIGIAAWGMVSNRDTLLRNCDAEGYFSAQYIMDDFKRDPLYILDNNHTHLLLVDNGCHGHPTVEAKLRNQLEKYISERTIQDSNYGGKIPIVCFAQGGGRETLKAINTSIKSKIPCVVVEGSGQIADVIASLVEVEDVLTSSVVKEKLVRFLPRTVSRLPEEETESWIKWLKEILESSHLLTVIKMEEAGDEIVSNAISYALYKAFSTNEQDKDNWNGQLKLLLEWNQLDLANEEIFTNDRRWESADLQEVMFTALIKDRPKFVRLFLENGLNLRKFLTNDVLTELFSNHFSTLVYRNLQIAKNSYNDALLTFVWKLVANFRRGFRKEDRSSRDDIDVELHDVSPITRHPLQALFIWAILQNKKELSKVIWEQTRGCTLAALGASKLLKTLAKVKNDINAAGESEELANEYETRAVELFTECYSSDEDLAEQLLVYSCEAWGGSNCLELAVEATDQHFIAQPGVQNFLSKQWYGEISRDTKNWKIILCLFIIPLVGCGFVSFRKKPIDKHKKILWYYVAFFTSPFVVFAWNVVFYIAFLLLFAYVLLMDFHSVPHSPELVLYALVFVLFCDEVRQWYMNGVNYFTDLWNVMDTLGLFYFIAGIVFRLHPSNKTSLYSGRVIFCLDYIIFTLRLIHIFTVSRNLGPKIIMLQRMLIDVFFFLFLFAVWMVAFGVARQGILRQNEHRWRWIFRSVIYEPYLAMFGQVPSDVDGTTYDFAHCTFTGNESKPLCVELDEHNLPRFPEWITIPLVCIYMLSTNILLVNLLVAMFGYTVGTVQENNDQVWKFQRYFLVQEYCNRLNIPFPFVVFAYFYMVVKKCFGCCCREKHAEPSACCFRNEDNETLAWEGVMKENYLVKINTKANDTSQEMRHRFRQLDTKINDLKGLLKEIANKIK

Row | pIC50 | Compound
1 | 7.62 | COC(=O)CCS(=O)(=O)N(CCC(F)(F)F)c1sc2ccccc2c1C
2 | 8.22 | COc1ccc(CN(c2sc3ccccc3c2C)S(=O)(=O)c2ccc(C(=O)O)cc2)cc1OC
3 | 7.82 | O=S(=O)(CC(F)(F)F)N(Cc1ccc(F)c(C(F)(F)F)c1)c1sc2ccccc2c1CO
4 | 8.06 | O=S(=O)(c1ccc(-c2nnn[nH]2)cc1)N(CCCCC(F)(F)F)c1sc2ccccc2c1Br
5 | 8.39 | CCS(=O)(=O)N(Cc1ccc(F)c(OC)c1)c1sc2ccccc2c1C(C)(C)O
6 | 8.05 | Cc1c(N(Cc2cc(Cl)ccc2Cl)S(=O)(=O)c2ccc(C(=O)O)cc2)sc2ccccc12
7 | 8.70 | Cc1c(N(Cc2ccc3c(c2)OC(F)(F)O3)S(=O)(=O)c2ccc(C(=O)O)cc2)sc2ccccc12
8 | 6.69 | CC(C)(C)OC(=O)N1CCCC1CN(c1sc2ccccc2c1Cl)S(=O)(=O)c1ccccc1 (centres undefined)
9 | 8.22 | O=S(=O)(c1ccc(-c2nnn[nH]2)cc1)N(CCC1CC1)c1sc2ccccc2c1Br
10 | 7.42 | CCCCN(c1sc2ccccc2c1C(C)O)S(=O)(=O)CC (centres undefined)
11 | 8.22 | O=S(=O)(c1cccs1)N(Cc1ccc(F)c(C(F)(F)F)c1)c1sc2ccccc2c1Cl
12 | 8.40 | Cc1c(N(Cc2ccccc2)S(=O)(=O)c2ccc(C(=O)O)cc2)sc2ccccc12
13 | 7.28 | CCCN(c1sc2ccccc2c1C)S(=O)(=O)c1ccc(C(=O)O)cc1
14 | 7.72 | O=S(=O)(c1ccc(-c2nnn[nH]2)cc1)N(CCC(F)(F)F)c1sc2ccccc2c1Br
15 | 8.10 | O=c1[nH]c(-c2ccc(S(=O)(=O)N(CCCCC(F)(F)F)c3sc4ccccc4c3Br)cc2)no1
16 | 7.74 | O=c1[nH]c(-c2ccc(S(=O)(=O)N(CCC(F)(F)F)c3sc4ccccc4c3Br)cc2)no1
17 | 7.62 | O=S(=O)(c1ccccc1)N(CCc1ccccc1)c1sc2ccccc2c1Cl
18 | 7.98 | O=[N+]([O-])c1cccc(CN(c2sc3ccccc3c2Br)S(=O)(=O)c2ccccc2)c1

Row | Compound | pIC50
19 | CCS(=O)(=O)N(Cc1ccc(F)c(F)c1)c1sc2ccccc2c1C(C)=O | 7.82
